According to ChEMBL document CHEMBL5620432 (Eur J Med Chem, 2023):
Activity calls are given as the source filed them. The calls are words filed in the database; no cut-off is given here.

Columns and labels:
[1] = target: T1, Mu-type opioid receptor (Homo sapiens, UniProt P35372); test: Agonist activity at human MOR expressed in CHO-K1 cells co-expressed with Galphai by cAMP assay; format: functional, cell-based
[2] = target: T1, Mu-type opioid receptor; test: Agonist activity at human MOR expressed in CHO-K1 cells co-expressed with Galphai by cAMP assay relative to control; format: functional, cell-based
[3] = target: T2, Nociceptin receptor (Homo sapiens, UniProt P41146); test: Agonist activity at human NOP receptor expressed in CHO-K1 cells co-expressed with Galphai by cAMP assay relative to control; format: functional, cell-based
[4] = target: T2, Nociceptin receptor; test: Agonist activity at human NOP receptor expressed in CHO-K1 cells co-expressed with Galphai by cAMP assay; format: functional, cell-based
[5] = tested on: Mus musculus; test: Antinociceptive activity in wild type C57BL/6 mouse assessed as maximum possible effect at 12 mg/kg measured upto 60 mins by tail-flick test; format: functional; settings: 1 h
[6] = target: T1, Mu-type opioid receptor; test: Displacement of [3H]-Diprenorphine from human MOR expressed in CHO-K1 cell membrane assessed as inhibition constant; format: cell membranes
[7] = target: T2, Nociceptin receptor; test: Displacement of [3H]-Nociceptin from human NOP receptor expressed in CHO-K1 cell membrane assessed as inhibition constant; format: cell membranes
[8] = target: T1, Mu-type opioid receptor; test: Agonist activity at human MOR expressed in CHO-K1 cells assessed as beta arrestin-2 recruitment; format: functional, cell-based
[9] = target: T2, Nociceptin receptor; test: Agonist activity at human NOP receptor expressed in CHO-K1 cells assessed as beta arrestin-2 recruitment; format: functional, cell-based
[10] = Drug concentration in mouse plasma at 2 mg/kg,sc measured after 5 mins by ICP-MS analysis; format: ADME, organism-based
[11] = Drug concentration in mouse plasma at 2 mg/kg,sc measured after 60 mins by ICP-MS analysis; format: ADME, organism-based
[12] = Drug concentration in mouse brain at 2 mg/kg,sc measured after 5 mins by ICP-MS analysis; format: ADME, organism-based; settings: read-out: Ct
[13] = Drug concentration in mouse brain at 2 mg/kg,sc measured after 60 mins by ICP-MS analysis; format: ADME, organism-based; settings: read-out: Ct
[14] = Drug concentration in mouse intestine at 2 mg/kg,sc measured after 5 mins by ICP-MS analysis; format: ADME, organism-based; settings: read-out: Ct
[15] = Drug concentration in mouse intestine at 2 mg/kg,sc measured after 60 mins by ICP-MS analysis; format: ADME, organism-based; settings: read-out: Ct
[16] = target: T1, Mu-type opioid receptor; test: Agonist activity at human MOR expressed in CHO-K1 cells assessed as decrease in intracellular cAMP level at 1 uM in presence of naltrexone; format: functional, cell-based; settings: filed as agonist
[17] = target: T2, Nociceptin receptor; test: Agonist activity at human NOP receptor expressed in CHO-K1 cells assessed as decrease in intracellular cAMP level at 1 uM in presence of BAN ORL 24; format: functional, cell-based; settings: filed as agonist
[18] = tested on: Mus musculus; test: Induction of motivational effect in C57BL/6 mouse assessed as increase in reward behaviour at 284 microg/kg, sc administered for 4 days and measured on day 6 by CPP analysis; format: functional, organism-based; settings: dose 284.0 µg/kg, time 6.0 day
[19] = tested on: Mus musculus; test: Induction of motivational effect in C57BL/6 mouse assessed as increase in number of jumps at 284 microg/kg, sc administered daily twice for 5 days by CPP analysis; format: functional, organism-based; settings: dose 284.0 µg/kg, time 5.0 day
[20] = tested on: Mus musculus; test: Antinociceptive activity in thermal stimulated sc dosed wild type C57BL/6 mouse measured upto 120 mins by tail flick test; format: functional; settings: C57BL/6, 2 h
[21] = tested on: Mus musculus; test: Antinociceptive activity in thermal stimulated wild type C57BL/6 mouse at 284 to 568 microg/kg, sc measured at 30 to 60 mins by tail flick test; format: functional, organism-based; settings: dose 284-568 µg/kg, time 30-60 min
[22] = tested on: Mus musculus; test: Antinociceptive activity in thermal stimulated MOR-knockout C57BL/6 mouse assessed as delay in flick tail at 252.8 microg/kg, sc measured upto 120 mins by tail flick test; format: functional, organism-based; settings: dose 252.8 µg/kg
[23] = tested on: Mus musculus; test: Antinociceptive activity in thermal stimulated sc dosed hMOR/mMOR knockout C57BL/6 mouse measured upto 120 mins by tail flick test; format: functional; settings: C57BL/6, 2 h
[24] = tested on: Mus musculus; test: Antinociceptive activity in thermal stimulated hMOR/mMOR knockout C57BL/6 mouse at 402 microg/kg,sc measured after 30 to 60 mins by tail flick test; format: functional, organism-based; settings: dose 402.0 µg/kg, time 30-60 min
[25] = tested on: Mus musculus; test: Antinociceptive activity in thermal stimulated wild type C57BL/6 mouse assessed as drug tolerance at 568 microg/kg, sc administered twice daily for 5 days and measured on day 1, 3, and 5 after 30 mins post drug treatment by tail flick test; format: functional, organism-based; settings: dose 568.0 µg/kg, time 5.0 day
[26] = tested on: Mus musculus; test: Antinociceptive activity in thermal stimulated hMOR/mMOR knockout C57BL/6 mouse assessed as drug tolerance at 402 microg/kg, sc administered twice daily for 5 days and measured on day 1, 3, and 5 after 30 mins post drug treatment by tail flick test; format: functional, organism-based; settings: dose 402.0 µg/kg, time 5.0 day
[27] = tested on: Mus musculus; test: Induction of motivational effect in C57BL/6 mouse assessed as increase in number of jumps at 2.5 microg/kg, sc administered daily twice for 5 days by CPP analysis; format: functional, organism-based; settings: dose 2.5 µg/kg, time 5.0 day

T2 sequence (P41146 whole entry): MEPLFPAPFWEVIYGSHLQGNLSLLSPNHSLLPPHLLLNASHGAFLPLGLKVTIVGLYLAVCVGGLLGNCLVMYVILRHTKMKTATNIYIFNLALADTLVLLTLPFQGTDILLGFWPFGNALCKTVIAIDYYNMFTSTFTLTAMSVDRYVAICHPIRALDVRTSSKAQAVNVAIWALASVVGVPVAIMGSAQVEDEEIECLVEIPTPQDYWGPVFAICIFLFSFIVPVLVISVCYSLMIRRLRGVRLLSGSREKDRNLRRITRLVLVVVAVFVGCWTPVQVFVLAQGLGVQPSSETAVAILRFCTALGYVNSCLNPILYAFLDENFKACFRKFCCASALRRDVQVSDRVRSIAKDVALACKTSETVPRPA
T1 sequence (P35372 whole entry): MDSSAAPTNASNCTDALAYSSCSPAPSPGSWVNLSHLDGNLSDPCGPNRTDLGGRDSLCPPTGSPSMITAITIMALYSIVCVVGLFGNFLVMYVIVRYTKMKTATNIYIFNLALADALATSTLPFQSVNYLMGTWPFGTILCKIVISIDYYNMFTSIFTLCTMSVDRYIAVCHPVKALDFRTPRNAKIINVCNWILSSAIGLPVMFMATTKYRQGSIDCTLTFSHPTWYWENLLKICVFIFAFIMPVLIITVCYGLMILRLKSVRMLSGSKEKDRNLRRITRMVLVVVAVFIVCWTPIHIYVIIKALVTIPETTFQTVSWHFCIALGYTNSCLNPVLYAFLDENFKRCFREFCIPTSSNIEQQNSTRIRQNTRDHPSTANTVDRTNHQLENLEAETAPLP

CN(C)C(CNC(=O)NCc1cccc(C(F)(F)F)c1)c1cccc(F)c1 (stereo unspecified)
EC50 [1]: 0.00066 nM | Emax ([2]; filed as agonist): 85.2% | Emax [3]: < 20%

CN1CCc2ccccc2C1CNC(=O)c1ccc(Cl)c(Cl)c1 (stereo unspecified)
EC50 [1]: 0.0234 nM | Emax ([2]; filed as agonist): 93.6% | EC50 [4]: 0.17 nM | Emax ([3]; filed as agonist): 87%

CN(C)C(CNC(=O)NCc1ccc(OC(F)(F)F)cc1)c1cccc(F)c1 (stereo unspecified)
EC50 [1]: 1.52 nM | Emax ([2]; filed as agonist): 76.9% | EC50 [4]: 2420 nM | Emax ([3]; filed as agonist): 61.9%

CN(C)C(CNC(=O)NCc1cccc(OC(F)(F)F)c1)c1cccc(F)c1 (stereo unspecified)
EC50 [1]: 0.0164 nM | Emax ([2]; filed as agonist): 77.9% | EC50 [4]: 0.02 nM | Emax ([3]; filed as agonist): 80.4%

Cc1cccc(CNC(=O)NCC(c2cccc(F)c2)N(C)C)c1 (stereo unspecified)
EC50 [1]: 0.526 nM | Emax ([2]; filed as agonist): 91.4% | EC50 [4]: 2130 nM | Emax ([3]; filed as agonist): 67.1%

CN(C)C(CNC(=O)NC1CCCC1)c1cccc(F)c1 (stereo unspecified)
Emax [2]: < 20% | EC50 [4]: 2.6 nM | Emax ([3]; filed as agonist): 67.1%

CN(C)C(CNC(=O)NCCc1cccc(Cl)c1)c1cccc(F)c1 (stereo unspecified)
Emax ([2]; filed as agonist): 89.9% | Emax ([3]; filed as agonist): 91.6% | MPE [5]: 0%

CN(C)C(CNC(=O)NCc1cccc(Cl)c1)c1cccc(F)c1 (stereo unspecified)
EC50 [1]: 0.000102 nM | Emax ([2]; filed as agonist): 92.5% | EC50 [4]: 0.000126 nM | Emax ([3]; filed as agonist): 91.6% | MPE [5]: 100% | Ki [6]: 0.4 nM | Ki [7]: 0.2 nM | EC50 [8]: 3.99 nM | EC50 [9]: 0.2 nM | concentration at 5 min [10]: 673 ng/mL | concentration at 1 h [11]: 119 ng/mL | concentration at 5 min [12]: 838 ng/g | concentration at 1 h [13]: 237 ng/g | concentration at 5 min [14]: 1290 ng/g | concentration at 1 h [15]: 454 ng/g | Activity [16]: Active | Activity [17]: Active | Activity [18]: inactive | Activity [19]: inactive | ED50 [20]: 0.284 mg/kg | Activity [21]: Active | Activity [22]: inactive | ED50 [23]: 0.402 mg/kg | Activity [24]: Active | Activity [25]: inactive | Activity [26]: inactive

Cc1cccc(CCNC(=O)NCC(c2cccc(F)c2)N(C)C)c1 (stereo unspecified)
Emax ([2]; filed as agonist): 89.7% | Emax ([3]; filed as agonist): 67% | MPE [5]: 0%

CN(C)C(CNC(=O)NCCc1cccc(F)c1)c1cccc(F)c1 (stereo unspecified)
EC50 [1]: 0.000374 nM | Emax ([2]; filed as agonist): 90.8% | Emax ([3]; filed as agonist): 92.6% | MPE [5]: 0%

CN(C)C(CNC(=O)Nc1ccc(Cl)c(Cl)c1)c1cccc(F)c1 (stereo unspecified)
Emax ([2]; filed as agonist): 68.5% | EC50 [4]: 37.2 nM | Emax ([3]; filed as agonist): 74.1%

CN(C)C(CNC(=O)NCc1ccc(Cl)cc1)c1cccc(F)c1 (stereo unspecified)
EC50 [1]: 0.00033 nM | Emax ([2]; filed as agonist): 84.7% | Emax [3]: < 20%

CN(C)C(CNC(=O)NCc1cccc(F)c1)c1cccc(F)c1 (stereo unspecified)
Emax ([2]; filed as agonist): 91.2% | Emax ([3]; filed as agonist): 89.8%

CN(C)C(CNC(=O)NCc1ccc(C(F)(F)F)cc1)c1cccc(F)c1 (stereo unspecified)
EC50 [1]: 0.19 nM | Emax ([2]; filed as agonist): 93.3% | EC50 [4]: 0.71 nM | Emax ([3]; filed as agonist): 92.3% | MPE [5]: 0%

CN(C)C(CNC(=O)NCCc1ccc(F)cc1)c1cccc(F)c1 (stereo unspecified)
Emax ([2]; filed as agonist): 81.1% | EC50 [4]: 0.000126 nM | Emax ([3]; filed as agonist): 58.4%

CN(C)C(CNC(=O)NCCc1ccc(Cl)cc1)c1cccc(F)c1 (stereo unspecified)
Emax ([2]; filed as agonist): 72.4% | EC50 [4]: 0.61 nM | Emax ([3]; filed as agonist): 53.9%

Cc1ccc(CNC(=O)NCC(c2cccc(F)c2)N(C)C)cc1 (stereo unspecified)
Emax ([2]; filed as agonist): 88% | Emax [3]: < 20%

CN(C)C(CNC(=O)NCc1ccc(F)cc1)c1cccc(F)c1 (stereo unspecified)
Emax ([2]; filed as agonist): 96.1% | Emax ([3]; filed as agonist): 93.2% | MPE [5]: 100%

CN(C)C(CNC(=O)NCCc1cccc(C(F)(F)F)c1)c1cccc(F)c1 (stereo unspecified)
EC50 [1]: 0.0186 nM | Emax ([2]; filed as agonist): 74.1% | Emax [3]: < 20%

CN1CC[C@]23c4c5ccc(O)c4O[C@H]2[C@@H](O)C=C[C@H]3[C@H]1C5
Activity [27]: Active

CN(C)C(CNC(=O)NCCc1ccc(C(F)(F)F)cc1)c1cccc(F)c1 (stereo unspecified)
EC50 [1]: 0.000501 nM | Emax ([2]; filed as agonist): 88.5% | EC50 [4]: 0.06 nM | Emax ([3]; filed as agonist): 57.5% | MPE [5]: 39.05%

Cc1ccc(CCNC(=O)NCC(c2cccc(F)c2)N(C)C)cc1 (stereo unspecified)
EC50 [1]: 15.1 nM | Emax ([2]; filed as agonist): 80.7% | EC50 [4]: 209 nM | Emax ([3]; filed as agonist): 76.9%

CN(C)C(CNC(=O)NCCCc1ccccc1)c1cccc(F)c1 (stereo unspecified)
EC50 [1]: 0.631 nM | Emax ([2]; filed as agonist): 80.2% | EC50 [4]: 0.711 nM | Emax ([3]; filed as agonist): 66.6%

CN(C)C(CNC(=O)NCCc1ccccc1)c1cccc(F)c1 (stereo unspecified)
EC50 [1]: 21 nM | Emax ([2]; filed as agonist): 86.6% | EC50 [4]: 2.96 nM | Emax ([3]; filed as agonist): 72%

CN(C)C(CNC(=O)Nc1cccc(Cl)c1)c1cccc(F)c1 (stereo unspecified)
EC50 [1]: 0.1 nM | Emax ([2]; filed as agonist): 72.5% | Emax [3]: < 20%
